17 molecules from patent US11564923B2, “Compounds and pharmaceutical compositions thereof for the treatment of inflammatory disorders” (Galapagos NV, priority 2017, dated 2023) can be followed below.

Each structure is given as a SMILES string.

Assay [1] has as its target T1, Recombinant human TYK2 catalytic domain (amino acids 871-1187) (Homo sapiens, UniProt P29597).
T1 construct: catalytic domain (amino acids 871-1187)
T1 sequence (P29597 871-1187): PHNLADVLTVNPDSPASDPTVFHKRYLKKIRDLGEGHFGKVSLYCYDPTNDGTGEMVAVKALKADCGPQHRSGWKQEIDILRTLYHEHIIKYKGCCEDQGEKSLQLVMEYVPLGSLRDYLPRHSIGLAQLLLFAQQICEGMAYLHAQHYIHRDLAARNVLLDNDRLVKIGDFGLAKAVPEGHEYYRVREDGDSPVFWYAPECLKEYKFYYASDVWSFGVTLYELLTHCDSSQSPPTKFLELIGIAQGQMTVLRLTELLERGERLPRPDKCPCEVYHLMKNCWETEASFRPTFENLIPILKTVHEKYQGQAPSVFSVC
The assay can be described thus: TYK2 radioactive assay polyGT substrate. Note: 0.1 µM ATP. It counts as biochemical. The protocol:
After 120 min at 30° C., reactions were stopped by adding 25 μL/well of 150 mM phosphoric acid. […] Plates were washed 6 times with 300 μL per well of a 75 mM phosphoric acid solution and the bottom of the plates is sealed. […] Kinase activity is calculated by subtracting counts per min (cpm) obtained in the presence of a positive control inhibitor (10 μM staurosporine) from cpm obtained in the presence of vehicle. The ability of a test compound to inhibit this activity (or percentage inhibition) is determined as: […]
cpm test compound=cpm determined for sample with test compound present cpm control=cpm determined for sample with positive control inhibitor cpm vehicle=cpm determined in the presence of vehicle
Dose dilution series were prepared for the compounds enabling the testing of dose-response effects in the TYK2 assay and the calculation of the IC50 for each compound. Each compound is routinely tested at concentration of 20 μM followed by a 1/5 serial dilution, 10 points in a final concentration of 1% DMSO.

Assay [2] has as its system IFNα activation of STAT1 in PBMC. Briefly: IFNα activation of STAT1 in PBMC. The following applies: Homo sapiens; IFNα activation of STAT1 in PBMC; average IC50; read-out: IFNα signaling inhibitory potency IC50. It counts as cell-based. How it is done:
After these 2 wash steps the cell pellet is dissolved in ammonium chloride buffer (1.5 M NH4Cl, 100 mM NaHCO3 and 10 mM Na2.EDTA) for lysis of the red blood cells.
PBMC are treated with test compound for 30 min at 37° C. 5% CO2. […] After 30 min of test compound/vehicle pre-treatment, PBMC are stimulated for 30 min at 37° C. 5% CO2 with recombinant human IFNα (PeproTech, catalog number 300-02A) at a final concentration of 5 ng/mL by addition of 20 μL (10× concentrated) cytokine trigger to obtain a final volume of 200 μL per well.
After 30 min of cytokine stimulation, 200 μL of cell suspension is transferred to a 96-well V-bottom plate, centrifugated for 5 min at 1000 rpm to pellet cells, followed by removal of supernatant.
(§1) The percentage inhibition is calculated as: […]
RCLU(vehicle control): Relative Chemiluminescent signal determined in presence of vehicle and trigger
RCLU(test compound): Relative Chemiluminescent signal determined in presence of test compounds and trigger
RCLU(positive control): Relative Chemiluminescent signal determined in presence of positive control and trigger
PIN values are plotted for compounds tested in dose-response and average IC50 values are derived using GraphiPad Prism Software applying non-linear regression (sigmoidal) curve fitting.

Assay [3] relates to IL-12 activation of STAT4 in NK-92 cells. Briefly: IL-12 activation of STAT4 in NK-92 cells using AphaLISA SureFire technology. The format is cell-based. The following applies: Homo sapiens, NK92; IL-12 activation of STAT4 in NK-92 cells, AlphaLISA SureFire; average IC50; read-out: IL12 pSTAT4 IC50. How it is done:
IL-2 is added freshly to the medium with each medium refreshment step. Cells are cultured in a humidified incubator at 37° C. 5% CO2.
A subcultured fraction of NK-92 cells is washed once in culture medium without rhIL-2 the day before the experiment and incubated overnight in a culture flask.
5% CO2. […] NK-92 cells are triggered with rhIL-12 for 30 min at 37° C. 5% CO2.
After 30 min of cytokine stimulation the cells are lysed by addition of 15 μL 5× lysis buffer (supplemented with the AlphaLISA kit). After 10 minutes, plates are frozen at −80° C. overnight and the next day the levels of phospho-STAT4 are quantified using the AlphaLISA SureFire ULTRA p-STAT4 (Tyr693) (Perkin Elmer, Catalogue number ALSU-PST4-A10K) according to the manufacturers instructions. AlphaLISA signal (relative light units) is measured using an Envision (Perkin Elmer).
as §1
RLU(trigger/veh): Relative lumescent signal determined in presence of vehicle and trigger
RLU(test compound): Relative luminescent signal determined in presence of test compounds and trigger
PIN values are plotted for compounds tested in dose-response and IC50 values are derived using GraphPad Prism Software applying non-linear regression (sigmoidal) curve fitting. The data are expressed as the average IC50 from different experiments.
(In general: In Alpha technology, singlet oxygen from a donor bead excites a nearby acceptor bead.)

Regarding `Cc1cc(C#N)ncc1Oc1cc(Nc2ccc(C(=O)N3C[C@@H](C)O[C@H](C)C3)cn2)c2ncn(C)c2n1` (racemic) [Compound 149, 4-methyl-5-[3-methyl-7-[[5-[rac-(2R,6R)-2,6-dimethylmorpholine-4-carbonyl]pyridin-2-yl]amino]imidazo[4,5-b]pyridin-5-yl]oxypyridine-2-carbonitrile], the values for the IC50 in assay [1], in assay [2] and in assay [3] were 3.66 nM, 218 nM and 347 nM, respectively. The like results for `CCc1cc(C#N)ncc1Oc1cc(Nc2ccc(C(=O)N3CCOCC3)cn2)c2ncn(C)c2n1` [Compound 7, 4-Ethyl-5-{3-methyl-7-[5-(morpholine-4-carbonyl)-pyridin-2-ylamino]-3H-imidazo[4,5-b]pyridin-5-yloxy}-pyridine-2-carbonitrile] were, in that order, 0.59 nM, 49 nM and 133 nM. In the case of `Cc1cc(C#N)ncc1Oc1cc(Nc2ccc(N3CC(CN(C)C)C3)nn2)c2ncn(C)c2n1` [Compound 40, 5-{7-[6-(3-Dimethylaminomethyl-azetidin-1-yl)-pyridazin-3-ylamino]-3-methyl-3H-imidazo[4,5-b]pyridin-5-yloxy}-4-methyl-pyridine-2-carbonitrile], the IC50 in assay [1] worked out at 9.69 nM; in assay [2], 115 nM; in assay [3], 3530 nM. In the case of `Cc1cc(C#N)ncc1Oc1cc(Nc2ccc(N3C[C@@H](C)O[C@@H](C)C3)nn2)c2ncn(C)c2n1` [Compound 43, (±)-5-{7-[6-((2R,6S)-2,6-Dimethyl-morpholin-4-yl)-pyridazin-3-ylamino]-3-methyl-3H-imidazo[4,5-b]pyridin-5-yloxy}-4-methyl-pyridine-2-carbonitrile], the IC50 in assay [1] amounted to 1.58 nM; in assay [2], 70 nM; in assay [3] it was 49 nM. In the case of `Cc1cc(C#N)ncc1Oc1cc(Nc2ccc(N3CCO[C@@H](C)C3)nn2)c2ncn(C)c2n1` [Compound 44, 4-Methyl-5-{3-methyl-7-[6-((S)-2-methyl-morpholin-4-yl)-pyridazin-3-ylamino]-3H-imidazo[4,5-b]pyridin-5-yloxy}-pyridine-2-carbonitrile], the values for the IC50 in assay [1], in assay [2] and in assay [3] were 1.97 nM, 79 nM and 50 nM, respectively. As to `Cc1cc(C#N)ncc1Oc1cc(Nc2ccc(C(=O)N3CC(O)(C4CC4)C3)cn2)c2ncn(C)c2n1` [Compound 113, 5-[7-[[5-(3-cyclopropyl-3-hydroxy-azetidine-1-carbonyl)-2-pyridyl]amino]-3-methyl-imidazo[4,5-b]pyridin-5-yl]oxy-4-methyl-pyridine-2-carbonitrile], the results for the IC50 in assay [1] and in assay [3] were 2.05 nM and 190 nM, respectively. For the molecule `Cc1cc(C#N)ncc1Oc1cc(Nc2ccc(C(=O)N3CC(CO)(CO)C3)cn2)c2ncn(C)c2n1` [Compound 135, 5-[7-[[5-[3,3-bis(hydroxymethyl)azetidine-1-carbonyl]pyridin-2-yl]amino]-3-methylimidazo[4,5-b]pyridin-5-yl]oxy-4-methylpyridine-2-carbonitrile], the IC50 in assay [1] is 2.08 nM. Still for that read-out and setting: under `Cc1cc(C#N)ncc1Oc1cc(Nc2ccc(C(=O)N(C)CCO)cn2)c2ncn(C)c2n1` [Compound 136, 6-[[5-(6-cyano-4-methylpyridin-3-yl)oxy-3-methylimidazo[4,5-b]pyridin-7-yl]amino]-N-(2-hydroxyethyl)-N-methylpyridine-3-carboxamide] stands 2.76 nM; under `Cc1cc(C#N)ncc1Oc1cc(Nc2ccc(N3CC(N(C)C)C3)nn2)c2ncn(C)c2n1` [Compound 143, 5-[7-[[6-[3-(dimethylamino)azetidin-1-yl]pyridazin-3-yl]amino]-3-methylimidazo[4,5-b]pyridin-5-yl]oxy-4-methylpyridine-2-carbonitrile], 4.55 nM.

Regarding `Cc1cc(C#N)ncc1Oc1cc(Nc2ccc(C(=O)N3CCOC[C@H]3C)cn2)c2ncn(C)c2n1` [Compound 146, 4-methyl-5-[3-methyl-7-[[5-[(3R)-3-methylmorpholine-4-carbonyl]pyridin-2-yl]amino]imidazo[4,5-b]pyridin-5-yl]oxypyridine-2-carbonitrile], the IC50 in assay [1] was determined as 1.15 nM; in assay [2], 122 nM. Consider `Cc1cc(C#N)ncc1Oc1cc(Nc2ccc(N3C[C@H]4C[C@@H]3CN4C)nn2)c2ncn(C)c2n1` [Compound 152, 4-methyl-5-[3-methyl-7-[[6-[(1R,4R)-5-methyl-2,5-diazabicyclo[2.2.1]heptan-2-yl]pyridazin-3-yl]amino]imidazo[4,5-b]pyridin-5-yl]oxypyridine-2-carbonitrile], for which the IC50 in assay [1] is 12.5 nM. For the molecule `Cc1cc(C#N)ncc1Oc1cc(Nc2ccc(C(=O)N3CCOC(C(F)(F)F)C3)cn2)c2ncn(C)c2n1` (centres unmarked) [Compound 155, 4-methyl-5-[3-methyl-7-[[5-[2-(trifluoromethyl)morpholine-4-carbonyl]pyridin-2-yl]amino]imidazo[4,5-b]pyridin-5-yl]oxypyridine-2-carbonitrile], in assay [1], the IC50 was determined as 2.05 nM. For the molecule `Cc1cc(C#N)ncc1Oc1cc(Nc2ccc(C(=O)N3CCOC(C4CC4)C3)cn2)c2ncn(C)c2n1` (centres unmarked) [Compound 156, 5-[7-[[5-(2-cyclopropylmorpholine-4-carbonyl)pyridin-2-yl]amino]-3-methylimidazo[4,5-b]pyridin-5-yl]oxy-4-methylpyridine-2-carbonitrile], the IC50 in assay [1] was 1.75 nM. On the same count and under the same terms, under `Cc1cc(C#N)ncc1Oc1cc(Nc2ccc(C(=O)N3CCOC[C@H]3C(C)C)cn2)c2ncn(C)c2n1` [Compound 157, 4-methyl-5-[3-methyl-7-[[5-[(3R)-3-propan-2-ylmorpholine-4-carbonyl]pyridin-2-yl]amino]imidazo[4,5-b]pyridin-5-yl]oxypyridine-2-carbonitrile] stands 0.97 nM; under `Cc1cc(C#N)ncc1Oc1cc(Nc2ccc(C(=O)N3CCOCC3C3CC3)cn2)c2ncn(C)c2n1` (centres unmarked) [Compound 159, 5-[7-[[5-(3-cyclopropylmorpholine-4-carbonyl)pyridin-2-yl]amino]-3-methylimidazo[4,5-b]pyridin-5-yl]oxy-4-methylpyridine-2-carbonitrile], 1.02 nM. On to `Cc1cc(C#N)ncc1Oc1cc(Nc2ccc(C(=O)N3CCOC(C#N)C3)cn2)c2ncn(C)c2n1` (centres unmarked) [Compound 160, 4-[6-[[5-(6-cyano-4-methylpyridin-3-yl)oxy-3-methylimidazo[4,5-b]pyridin-7-yl]amino]pyridine-3-carbonyl]morpholine-2-carbonitrile], for which, in assay [1], the 50% inhibitory concentration (IC50) came out at 1.39 nM. Take `Cc1cc(C#N)ncc1Oc1cc(Nc2ccc(C(=O)N3CCOCC3C#N)cn2)c2ncn(C)c2n1` (centres unmarked) [Compound 162, 4-[6-[[5-(6-cyano-4-methylpyridin-3-yl)oxy-3-methylimidazo[4,5-b]pyridin-7-yl]amino]pyridine-3-carbonyl]morpholine-3-carbonitrile]: in assay [1], the IC50 was determined as 2.06 nM.

Broadly, the IC50 is the concentration at which inhibition is half-maximal.
